Measurements from patent US20250360123A1, “METHODS AND COMPOSITIONS FOR TREATING INHERITED RETINAL DEGENERATION” (ONL Therapeutics, Inc., priority 2024, published 2025).

What was measured:
Type in all cases: in vivo, mouse
Fas-Lpr/P23H mice [1] = assay: Electroretinogram (ERG) recording, Fas-deficient retinitis pigmentosa model; conditions: 3-month and 4-month old Fas-LPR/P23H mice; HCQ versus untreated
Description: (§1) This study was conducted in the Lpr/P23H mouse line, a Fas-deficient mouse line that is also a model of retinitis pigmentosa. Hydroxychloroquine (HCQ) was given in the drinking water at 1.2 mg/ml starting at 21 days post-natal (P21) to reduce autophagy flux (FIG. 1). Photoreceptor death was assessed by Terminal deoxynucleotidyl transferase (TdT) dUTP Nick-End Labeling (TUNEL) cell counts. Retinal structure was examined by histology and optical coherence tomography (OCT) analysis. Electroretinogram (ERG) recording and immunohistochemistry (IHC) staining of rhodopsin and m-opsin were performed to evaluate the retinal function. Transcript levels of inflammatory cytokines, CCL-2 and CCL-3, were analyzed by rt-PCR.
Photoreceptor function was assessed using electroretinograms (ERGs).

CCL-3 = assay: Transcript level of inflammatory cytokine CCL-3 in retina by rt-PCR; conditions: Fas-Lpr/P23H mice, HCQ 1.2 mg/ml in drinking water from P21, versus untreated mice
Description: as §1

Fas-Lpr/P23H mice [2] = assay: ONL thickness by optical coherence tomography (OCT), Fas-deficient retinitis pigmentosa model; conditions: 3- and 4-months old, OCT at 250 and 500 μm from the optic nerve, inferior and superior retina, HCQ in drinking water versus untreated
Description: as §1
A proxy for retinal cell death is […] (ONL) thickness, with thicker ONLs correlating to less cell death.

CCL-2 = assay: Transcript level of inflammatory cytokine CCL-2 in retina by rt-PCR; conditions: Fas-Lpr/P23H mice, HCQ 1.2 mg/ml in drinking water from P21, versus untreated mice
Description: as §1

Fas-Lpr/P23H mice [3] = assay: Retinal histology and IHC staining (DAPI, m-opsin, rhodopsin); conditions: HCQ versus untreated
Description: as §1

Fas-Lpr/P23H mice [4] = assay: TUNEL cell counts for photoreceptor death in retina; conditions: HCQ 1.2 mg/ml in drinking water from P21, versus untreated mice, FIG. 2B
Description: as §1

CCN(CCO)CCCC(C)Nc1ccnc2cc(Cl)ccc12 (centres unmarked) [HCQ, Hydroxychloroquine]
scotopic ERG a-wave amplitude (Fas-Lpr/P23H mice [1]): significantly greater amplitude | scotopic ERG b-wave amplitude (Fas-Lpr/P23H mice [1]): significantly greater amplitude | production of inflammatory cytokine CCL-3 (CCL-3): lowered production | optic nerve layer (ONL) thickness (Fas-Lpr/P23H mice [2]): significantly greater ONL thickness | production of inflammatory cytokine CCL-2 (CCL-2): lowered production | photoreceptor survival (histological images) (Fas-Lpr/P23H mice [3]; 3-month and 4-month old Fas-LPR/P23H mice, FIG. 6): greater photoreceptor survival | survival of cell bodies (DAPI), cones (m-opsin) and rods (rhodopsin), IHC images (Fas-Lpr/P23H mice [3]; 3-month and 4-month old Fas-Lpr/P23H mice, FIG. 7A, 7B): greater survival of cell bodies, cones, and rods | TUNEL-positive cell counts in the retina (Fas-Lpr/P23H mice [4]): statistically significantly fewer
